{
  "source": "patent US20260139241A1",
  "about": "“METHOD FOR CONSTRUCTING SENESCENT CELLSAND METHOD FOR EVALUATING ANTI-SENESCENCE EFFICACY” (JAKA BIOTECH Co,.Ltd., priority 2022, published 2026)",
  "key": {"[1]": {"test_system": "endogenously senescent human primary fibroblasts (P4, P7, P9, P12 passage cells)", "experiment": "Anti-aging efficacy evaluation of VC on endogenously senescent (naturally senescent) cells, proliferation-promoting effect (ATP detection)", "type": "cell-based", "conditions": "endogenous senescence, 10 ug/mL VC, 48 h", "description": "[…]"}, "[2]": {"test_system": "exogenously senescent human primary fibroblasts (UVA-P4, UVA-P7, UVA-P9 passage cells)", "experiment": "Anti-aging efficacy evaluation of VC on exogenously senescent (light aging) cells, proliferation-promoting effect (ATP detection)", "type": "cell-based", "conditions": "exogenous senescence (light aging), 10 ug/mL VC, 48 h", "description": "[…]"}},
  "data": [
    {"smiles": "O=C1O[C@H]([C@@H](O)CO)C(O)=C1O", "note": "[VC]", "values": [
      {"measurement": "proliferation-promoting effect", "setting": "[1]; early-stage senescent cells (P7)", "result": "relatively poor proliferation-promoting effect"},
      {"measurement": "proliferation-promoting effect", "setting": "[1]; growth-stage cells (P4)", "result": "relatively significant proliferation-promoting effect"},
      {"measurement": "proliferation-promoting effect", "setting": "[1]; late-stage senescent cells (P12)", "result": "basically no proliferation-promoting effect"},
      {"measurement": "proliferation-promoting effect", "setting": "[1]; middle-stage senescent cells (P9)", "result": "basically no proliferation-promoting effect"},
      {"measurement": "proliferation-promoting effect", "setting": "[2]; early-stage senescent cells (UVA-P4)", "result": "relatively significant proliferation-promoting effect"},
      {"measurement": "proliferation-promoting effect", "setting": "[2]; late-stage senescent cells (UVA-P9)", "result": "no proliferation-promoting effect"},
      {"measurement": "proliferation-promoting effect", "setting": "[2]; middle-stage senescent cells (UVA-P7)", "result": "relatively poor proliferation-promoting effect"}
    ]}
  ]
}
